Measurements taken from patent publication US20070207971A1 (priority 2006, published 2007).

Tests used:
[1] = target: Bovine serum albumin (BSA) (Bos taurus, UniProt P02769); test: Western blot analysis, negative control protein; format: binding; conditions: BSA 0.65 μg/μl with 200 μM, 4° C.
[2] = target: Vibro cholerae neuraminidase (Vibrio cholerae serotype O1, UniProt P0C6E9); test: biochemical; format: biochemical; conditions: for inhibitory effect on neuraminidase activity: pH 6.5
[3] = system: influenza A virus (A/WSN/33); test: ELISA virus capture on streptavidin coated plate; format: binding
[4] = target: T1, Athrobacter ureafaciens neuraminidase (Paenarthrobacter ureafaciens, UniProt Q5W7Q2); format: biochemical; conditions: pH 6.5
T1 sequence (Q5W7Q2 39-990): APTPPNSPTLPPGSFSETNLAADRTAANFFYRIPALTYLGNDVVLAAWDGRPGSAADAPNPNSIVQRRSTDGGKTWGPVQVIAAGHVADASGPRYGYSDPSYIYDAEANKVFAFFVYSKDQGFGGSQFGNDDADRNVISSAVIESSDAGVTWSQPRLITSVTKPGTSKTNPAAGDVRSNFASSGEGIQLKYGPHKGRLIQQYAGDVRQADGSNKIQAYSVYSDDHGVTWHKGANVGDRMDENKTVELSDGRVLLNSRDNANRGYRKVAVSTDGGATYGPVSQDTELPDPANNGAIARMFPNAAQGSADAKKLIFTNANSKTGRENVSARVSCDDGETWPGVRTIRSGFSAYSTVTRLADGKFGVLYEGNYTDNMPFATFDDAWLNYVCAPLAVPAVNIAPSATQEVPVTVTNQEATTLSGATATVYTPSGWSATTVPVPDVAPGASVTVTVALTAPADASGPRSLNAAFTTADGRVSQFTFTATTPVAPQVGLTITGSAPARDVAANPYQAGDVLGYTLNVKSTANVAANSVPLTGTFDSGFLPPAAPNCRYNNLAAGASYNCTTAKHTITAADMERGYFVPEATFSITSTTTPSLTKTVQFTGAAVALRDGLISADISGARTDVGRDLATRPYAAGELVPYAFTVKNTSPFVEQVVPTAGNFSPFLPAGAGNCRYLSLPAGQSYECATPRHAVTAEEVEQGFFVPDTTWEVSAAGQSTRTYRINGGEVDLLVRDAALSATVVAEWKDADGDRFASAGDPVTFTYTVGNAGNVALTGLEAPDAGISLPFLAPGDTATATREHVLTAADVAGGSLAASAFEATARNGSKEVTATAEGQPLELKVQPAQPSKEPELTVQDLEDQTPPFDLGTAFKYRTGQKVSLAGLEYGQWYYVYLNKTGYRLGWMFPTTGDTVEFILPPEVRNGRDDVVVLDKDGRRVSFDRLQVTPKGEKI

[5] = target: T2, influenza A virus neuraminidase (Influenza A virus, UniProt P03470); test: biochemical; format: biochemical, influenza A virus (A/WSN/33)
T2 construct: pre-incubated for 45 minutes with influenza A virus (A/WSN/33; 9×10^3 PFU); host or cells: whole virus particles (PFU-titred virus stock)
T2 sequence (P03470 whole entry): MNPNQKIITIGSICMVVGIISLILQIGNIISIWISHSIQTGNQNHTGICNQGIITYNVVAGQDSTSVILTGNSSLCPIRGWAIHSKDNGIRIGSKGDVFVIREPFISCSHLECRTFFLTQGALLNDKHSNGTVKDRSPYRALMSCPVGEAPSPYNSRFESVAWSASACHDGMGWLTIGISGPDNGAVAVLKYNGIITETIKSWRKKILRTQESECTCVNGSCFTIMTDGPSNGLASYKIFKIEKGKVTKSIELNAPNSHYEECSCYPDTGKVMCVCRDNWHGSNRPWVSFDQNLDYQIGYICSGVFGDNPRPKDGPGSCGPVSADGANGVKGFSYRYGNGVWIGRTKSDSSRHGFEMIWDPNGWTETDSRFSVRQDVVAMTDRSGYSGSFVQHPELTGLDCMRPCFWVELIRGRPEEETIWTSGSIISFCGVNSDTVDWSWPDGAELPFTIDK

[6] = system: Japanese encephalitis virus (JEV); test: ELISA selective capturing experiment; format: binding; conditions: mixture of influenza A virus and JEV; anti-JEV antibody
influenza A virus = test: ELISA capturing experiment with neuraminidase active site blocked by zanamivir; format: binding; conditions: compound 1 667 μM, zanamivir 67 μM pre-incubation 45 minutes, 9×10^3 PFU, optical density
[7] = target: Clostridium perfringens neuraminidase (Clostridium perfringens, UniProt P10481); format: biochemical; conditions: pH 6.5
Clostridium perfringens neuraminidase, sequence (P10481 whole entry, looked up): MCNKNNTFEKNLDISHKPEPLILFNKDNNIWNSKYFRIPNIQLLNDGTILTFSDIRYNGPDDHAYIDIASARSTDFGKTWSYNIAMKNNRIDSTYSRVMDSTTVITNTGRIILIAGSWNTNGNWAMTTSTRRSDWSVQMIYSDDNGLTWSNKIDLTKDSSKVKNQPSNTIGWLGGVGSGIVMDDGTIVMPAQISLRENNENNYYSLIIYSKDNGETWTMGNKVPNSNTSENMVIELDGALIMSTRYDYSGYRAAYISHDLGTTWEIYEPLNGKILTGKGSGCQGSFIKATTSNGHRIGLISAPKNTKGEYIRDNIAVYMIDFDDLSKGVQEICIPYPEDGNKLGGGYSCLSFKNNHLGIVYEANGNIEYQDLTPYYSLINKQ

[8] = target: T1, Athrobacter ureafaciens neuraminidase; test: Western blot analysis of covalent binding (biotinylation) of neuraminidase; conditions: 200 μM, 4° C., ammonium acetate buffer 100 mM; bands of 88, 66 and 52 KDa

Vibro cholerae neuraminidase, sequence (P0C6E9 25-781): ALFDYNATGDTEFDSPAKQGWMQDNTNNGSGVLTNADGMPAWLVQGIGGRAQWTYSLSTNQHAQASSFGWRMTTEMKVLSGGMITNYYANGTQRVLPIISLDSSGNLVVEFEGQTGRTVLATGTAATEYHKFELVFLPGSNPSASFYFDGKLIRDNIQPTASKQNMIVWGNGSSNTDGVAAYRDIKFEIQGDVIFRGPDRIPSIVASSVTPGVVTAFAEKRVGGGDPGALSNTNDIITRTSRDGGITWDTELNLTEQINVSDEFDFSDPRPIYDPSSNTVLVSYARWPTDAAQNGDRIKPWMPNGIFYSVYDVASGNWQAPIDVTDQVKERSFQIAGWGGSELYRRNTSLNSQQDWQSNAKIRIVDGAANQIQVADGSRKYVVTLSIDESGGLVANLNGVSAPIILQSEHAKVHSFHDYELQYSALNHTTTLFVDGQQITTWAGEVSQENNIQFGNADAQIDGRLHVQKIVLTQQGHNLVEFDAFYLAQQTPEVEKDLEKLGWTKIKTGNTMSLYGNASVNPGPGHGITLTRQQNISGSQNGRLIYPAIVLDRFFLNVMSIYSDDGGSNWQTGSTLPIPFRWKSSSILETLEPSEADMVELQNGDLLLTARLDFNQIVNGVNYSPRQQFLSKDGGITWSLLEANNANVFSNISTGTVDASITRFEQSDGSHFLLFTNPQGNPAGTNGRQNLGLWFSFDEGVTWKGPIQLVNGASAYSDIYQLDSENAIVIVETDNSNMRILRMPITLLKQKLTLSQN
Bovine serum albumin (BSA), sequence (P02769 25-607): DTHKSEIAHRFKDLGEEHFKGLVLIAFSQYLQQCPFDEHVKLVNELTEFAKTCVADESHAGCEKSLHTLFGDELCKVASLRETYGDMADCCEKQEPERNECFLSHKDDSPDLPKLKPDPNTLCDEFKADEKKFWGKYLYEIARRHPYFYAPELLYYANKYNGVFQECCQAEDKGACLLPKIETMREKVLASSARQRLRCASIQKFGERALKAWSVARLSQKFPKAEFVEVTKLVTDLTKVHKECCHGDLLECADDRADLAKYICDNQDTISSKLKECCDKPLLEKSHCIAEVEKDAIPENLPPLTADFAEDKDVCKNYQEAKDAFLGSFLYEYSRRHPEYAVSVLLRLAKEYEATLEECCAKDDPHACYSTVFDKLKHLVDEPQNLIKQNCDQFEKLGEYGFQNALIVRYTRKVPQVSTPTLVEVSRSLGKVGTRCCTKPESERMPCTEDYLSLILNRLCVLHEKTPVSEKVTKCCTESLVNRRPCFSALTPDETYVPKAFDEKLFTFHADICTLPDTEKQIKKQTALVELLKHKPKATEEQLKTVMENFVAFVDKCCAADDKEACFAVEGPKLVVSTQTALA

CC(=O)N[C@@H]1C(O)CC(Oc2ccc(NC(=O)CCC(=O)NCCCCCCNC(=O)CCCCC3SCC4NC(=O)NC43)cc2C(F)F)(C(=O)O)OC1[C@H](O)[C@H](O)CO (stereo partly drawn) [compound 1]
bands on the PVDF membrane [1]: no band was observed
IC50 [2]: 530 µM
inhibitory effect on neuraminidase activity [2]: significant inhibitory effect
capture of influenza A virus on plate wells ([3]; 5 nmol on streptavidin coated plate, virus 3.8×10^2-970×10^2 PFU, anti-Flu A antibody detection): successfully captured influenza A virus
capture of influenza A virus from a mixture with JEV ([3]; mixture of influenza A virus and JEV, anti-Flu A antibody): captured and detected
inhibitory effect on neuraminidase activity [4]: significant inhibitory effect
IC50 [5]: 1.7 mM
inhibitory effect on neuraminidase activity ([5]; pH 6.5): significant inhibitory effect
capture of JEV from a mixture with influenza A virus [6]: not JEV
capture of influenza A virus relative to influenza A virus pretreated with zanamivir (influenza A virus): 14 folds
inhibitory effect on neuraminidase activity [7]: significant inhibitory effect
bands on the PVDF membrane (biotinylated neuraminidase isoenzymes) [8]: three bands

CC(=O)N[C@H]1[C@H]([C@H](O)[C@H](O)CO)OC(C(=O)O)=C[C@@H]1N=C(N)N [zanamivir, reference compound]
inhibitory effect on neuraminidase activity [2]: only weak inhibitory effect
inhibitory effect on neuraminidase activity [4]: only weak inhibitory effect
inhibitory effect on neuraminidase activity [7]: only weak inhibitory effect
